Source: the supplement of paper PMC11208160

Experiment: recombinant UMI read abundance after kanamycin selection (control-corrected) (log10(CPM+1)); higher = more efficient recombination; extreme values may be limits of the assay; sequences stand for … in AGTGCAGAGAAAATCGGCCAGTTTTCTCTGCCTGCAGTCCGCATGCCGTGGGACCCCTTGGGTTCTAACCTGTTGCCTAGATTTATGCAGCGGACTGCCTTTCTCCCAAAGTGATAAACCGG…AGGTTGGTTTCACT; site = the 11-nt donor
In short: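 Sequencing read counts were converted to CPM, averaged over two replicates and scaled by control-derived factors. Results are given as log10(CPM+1). The reads covered the donor–target junction of recombinant UMIs from a pooled Escherichia coli screen of donor and donor-binding-loop pairs for the IS621 bridge recombinase.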
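Also: IS621 bridge recombinase in Escherichia coli cells against a fixed T5 target plasmid.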

| Sequence | recombinant UMI read abundance (log10) |
| --- | --- |
| AGAGAGGCATGGACCGGTTTTCCCGGTAATCCGTATTTGCT (site AGACAGGCTAG) | 0.828 |
| AGAGAGGCATGGACCGGTTTTCCCGGTAATCCGTATTTGCT (site AGAGAGGCTAG) | 2.19 |
| AGAGAGGCATGGACCGGTTTTCCCGGTAATCCGTATTTGCT (site AGATAGGCTAG) | 1.69 |
| AGAGATGCATGGACCGGTTTTCCCGGTAATCCGTATTTGGG (site AGAGATGCTCC) | 1.2 |
| AGAGCATCATGGACCGGTTTTCCCGGTAATCCGTATTTGCT (site AGAGCATCTAG) | 2.16 |
| AGAGCATCATGGACCGGTTTTCCCGGTAATCCGTATTTGCT (site CGATCATCTAG) | 0 |
| AGAGCTTCATGGACCGGTTTTCCCGGTAATCCGTATTTGGA (site AGAGCTTCTTC) | 2.31 |
| AGAGTATCATGGACCGGTTTTCCCGGTAATCCGTATTTGAA (site ACAGTATCTTG) | 2.21 |
| AGAGTATCATGGACCGGTTTTCCCGGTAATCCGTATTTGAA (site AGAGTATCTTT) | 3.15 |
| AGAGTGGCATGGACCGGTTTTCCCGGTAATCCGTATTTGGT (site AGAGTGGCTAC) | 1.47 |
| AGAGTGGCATGGACCGGTTTTCCCGGTAATCCGTATTTGGT (site CGAGTGGCTAC) | 0.973 |
| AGAGTGGCATGGACCGGTTTTCCCGGTAATCCGTATTTGGT (site GGAGTGGCTAC) | 0.101 |
| AGAGTGGCATGGACCGGTTTTCCCGGTAATCCGTATTTGGT (site TGAGTGGCTAC) | 0.546 |
| AGATATCCATGGACCGGTTTTCCCGGTAATCCGTATTTGAT (site AGATATCCTAT) | 1.12 |
| AGATCAGCATGGACCGGTTTTCCCGGTAATCCGTATTTGCT (site AGATCAGCTAG) | 2.68 |
| AGATCAGCATGGACCGGTTTTCCCGGTAATCCGTATTTGCT (site CGATCATCTAG) | 0 |
| AGATCAGCATGGACCGGTTTTCCCGGTAATCCGTATTTGGG (site AGATCAGCTCC) | 0.224 |
| AGATCAGCATGGACCGGTTTTCCCGGTAATCCGTATTTGGG (site AGCTCAGCTCC) | 0.00476 |
| AGATCAGCATGGACCGGTTTTCCCGGTAATCCGTATTTGGG (site AGGTCAGCTCC) | 0.014 |
| AGATCAGCATGGACCGGTTTTCCCGGTAATCCGTATTTGGG (site AGTTCAGCTCC) | 0.296 |
| AGATCCTCATGGACCGGTTTTCCCGGTAATCCGTATTTGTT (site AGATCCTCTAA) | 2.08 |
| AGATCGACATGGACCGGTTTTCCCGGTAATCCGTATTTGTT (site AGATCGACTAA) | 0.688 |
| AGATCGACATGGACCGGTTTTCCCGGTAATCCGTATTTGTT (site CGATCGACTAA) | 0.0123 |

| Sequence | recombinant UMI read abundance (log10) |
| --- | --- |
| AGATCGACATGGACCGGTTTTCCCGGTAATCCGTATTTGTT (site GGATCGACTAA) | 0.012 |
| AGATCGACATGGACCGGTTTTCCCGGTAATCCGTATTTGTT (site TGATCGACTAA) | 0.00951 |
| AGATGCGCATGGACCGGTTTTCCCGGTAATCCGTATTTGAG (site AGATGCGCTCT) | 1.86 |
| AGATGGGCATGGACCGGTTTTCCCGGTAATCCGTATTTGGA (site AGATGGGCTTC) | 1.22 |
| AGATTATCATGGACCGGTTTTCCCGGTAATCCGTATTTGCT (site AGATTATCTAG) | 2.71 |
| AGATTATCATGGACCGGTTTTCCCGGTAATCCGTATTTGCT (site CGATCATCTAG) | 0 |
| AGCAAGACATGGACCGGTTTTCCCGGTAATCCGTATTTGCT (site AGCAAGACTAG) | 1.94 |
| AGCAAGACATGGACCGGTTTTCCCGGTAATCCGTATTTGCT (site AGGAAGACTTG) | 0 |
| AGCAAGACATGGACCGGTTTTCCCGGTAATCCGTATTTGGA (site AGCAAGACTTC) | 1.8 |
| AGCAAGACATGGACCGGTTTTCCCGGTAATCCGTATTTGGA (site AGGAAGACTTG) | 0 |
| AGCAAGGCATGGACCGGTTTTCCCGGTAATCCGTATTTGCT (site AGAAAGGCTAG) | 0 |
| AGCAAGGCATGGACCGGTTTTCCCGGTAATCCGTATTTGCT (site AGCAAGGCTAG) | 2.61 |
| AGCAAGGCATGGACCGGTTTTCCCGGTAATCCGTATTTGCT (site AGGAAGGCTAG) | 0.0349 |
| AGCAAGGCATGGACCGGTTTTCCCGGTAATCCGTATTTGCT (site AGTAAGGCTAG) | 0.238 |
| AGCAATCCATGGACCGGTTTTCCCGGTAATCCGTATTTGAA (site AGCAATCCTTT) | 1.33 |
| AGCAATCCATGGACCGGTTTTCCCGGTAATCCGTATTTGAA (site CGCAATCCTTT) | 0 |
| AGCAATCCATGGACCGGTTTTCCCGGTAATCCGTATTTGAA (site GGCAATCCTTT) | 0.00676 |
| AGCAATCCATGGACCGGTTTTCCCGGTAATCCGTATTTGAA (site TGCAATCCTTT) | 0.186 |
| AGCACGTCATGGACCGGTTTTCCCGGTAATCCGTATTTGAC (site AGCACGTCTGT) | 2.28 |
| AGCAGATCATGGACCGGTTTTCCCGGTAATCCGTATTTGAA (site AGCAGATCTTT) | 1.77 |
| AGCAGTACATGGACCGGTTTTCCCGGTAATCCGTATTTGCG (site AGCAGTACTCG) | 1.25 |
| AGCAGTGCATGGACCGGTTTTCCCGGTAATCCGTATTTGAG (site AGCAGTGCTCT) | 1.93 |
| AGCATTACATGGACCGGTTTTCCCGGTAATCCGTATTTGAT (site AGCATTACTAT) | 1.01 |

| Sequence | recombinant UMI read abundance (log10) |
| --- | --- |
| AGCATTCCATGGACCGGTTTTCCCGGTAATCCGTATTTGTC (site AGCATTCCTGA) | 0 |
| AGCCAAGCATGGACCGGTTTTCCCGGTAATCCGTATTTGTT (site AGCCAAGCTAA) | 1.09 |
| AGCCAAGCATGGACCGGTTTTCCCGGTAATCCGTATTTGTT (site AGCCCAGCTAA) | 0.0145 |
| AGCCAAGCATGGACCGGTTTTCCCGGTAATCCGTATTTGTT (site AGCCGAGCTAA) | 0.00778 |
| AGCCAAGCATGGACCGGTTTTCCCGGTAATCCGTATTTGTT (site AGCCTAGCTAA) | 0.0061 |
| AGCCCAGCATGGACCGGTTTTCCCGGTAATCCGTATTTGGG (site AGCACAGCTCC) | 0.0163 |
| AGCCCAGCATGGACCGGTTTTCCCGGTAATCCGTATTTGGG (site AGCCCAGCTCC) | 0.35 |
| AGCCCAGCATGGACCGGTTTTCCCGGTAATCCGTATTTGGG (site AGCGCAGCTCC) | 0.0133 |
| AGCCCAGCATGGACCGGTTTTCCCGGTAATCCGTATTTGGG (site AGCTCAGCTCC) | 0.0182 |
| AGCCTAACATGGACCGGTTTTCCCGGTAATCCGTATTTGCT (site AGCCTAACTAG) | 0 |
| AGCCTACCATGGACCGGTTTTCCCGGTAATCCGTATTTGTT (site AGCCTAACTAA) | 0 |
| AGCCTACCATGGACCGGTTTTCCCGGTAATCCGTATTTGTT (site AGCCTACCTAA) | 0.0133 |
| AGCCTACCATGGACCGGTTTTCCCGGTAATCCGTATTTGTT (site AGCCTAGCTAA) | 0.00248 |
| AGCCTACCATGGACCGGTTTTCCCGGTAATCCGTATTTGTT (site AGCCTATCTAA) | 0.00614 |
| AGCCTAGCATGGACCGGTTTTCCCGGTAATCCGTATTTGAT (site AGCCTAGCTAA) | 0.0122 |
| AGCCTAGCATGGACCGGTTTTCCCGGTAATCCGTATTTGAT (site AGCCTAGCTAC) | 0.0164 |
| AGCCTAGCATGGACCGGTTTTCCCGGTAATCCGTATTTGAT (site AGCCTAGCTAG) | 0 |
| AGCCTAGCATGGACCGGTTTTCCCGGTAATCCGTATTTGAT (site AGCCTAGCTAT) | 0.0107 |
| AGCCTAGCATGGACCGGTTTTCCCGGTAATCCGTATTTGTA (site AGCCTAGCTAA) | 0.0136 |
| AGCCTAGCATGGACCGGTTTTCCCGGTAATCCGTATTTGTA (site AGCCTAGCTCA) | 0.0462 |
| AGCCTAGCATGGACCGGTTTTCCCGGTAATCCGTATTTGTA (site AGCCTAGCTGA) | 0 |
| AGCCTAGCATGGACCGGTTTTCCCGGTAATCCGTATTTGTA (site AGCCTAGCTTA) | 0.245 |
